Series [1] deals with fibroblasts (ATCC-CRL-2106). In words: Cell counting / growth curves in in vitro culture. Type of series: cell-based, human. The settings on record: for fibroblast cell number / growth in comparison to the controls: 6–1500 µM; for GI50: Homo sapiens, Fibroblast, fibroblasts, concentration causing 50% cell growth inhibition, from cell growth graphs.
Series [2] concerns fibroblasts (ATCC-CRL-2106). In words: MTT test (cell metabolic activity). Type of series: cell-based, human. The settings on record: for IC50: Homo sapiens, Fibroblast, fibroblasts, 50% reduction in cell metabolism rate, MTT test. The protocol:
(§1) We investigated the cytotoxicity and effects of oxythiamine and 2′-methylthiamine on fibroblast (ATCC-CRL-2106) and HeLa (the human cervical cancer cell line; CCL-2; ATCC, Manassas, VA, USA) cell growth. Fibroblasts were at passage 5 and HeLa cells were at passage 15. Cells were cultured under the 5% CO2 and 95% humidity in Medium199 (M4530; Sigma-Aldrich, St. Louis, MO, USA) with 10% fetal bovine serum (F7524; Sigma-Aldrich), 50 U/mL penicillin, and 50 µg/mL streptomycin (P0781; Sigma-Aldrich) at 37 °C. The media was changed every 2 days. Cells were seeded at the density of 1 × 10^5 cells/well in 12-well plates one day prior to the addition of the test compounds. […] The toxicity of oxythiamine and 2′-methylthiamine was determined by means of colorimetric detection using the MTT test. The cells were incubated for 0.5 h in 0.5 mL of PBS with 50 μL of MTT (5 mg/mL). The medium was then removed from the wells, and formazan crystals were dissolved in 0.5 mL of dimethyl sulfoxide (DMSO) with 0.01 mL of Sorensen’s buffer. Absorbance was measured by means of the Lambda E plate reader (MWG Biotech AG, Ebensburg, Germany) at a wavelength of 570 nm. The results were expressed as a percentage of the controls. […] The experiments were conducted in six independent replicates for the purpose of statistical evaluation.
For orientation: Formazan colour is commonly taken as a measure of viable cells.

The subject of series [3] is HeLa cells. Put plainly: MTT test (cell metabolic activity). Type of series: cell-based, human. Conditions: for IC50: HeLa cells, 50% reduction in cell metabolism rate, MTT test; for IC50 / SI (selectivity index): mean ± SD; for SI (selectivity index): ratio of IC50 (MTT) fibroblasts versus HeLa cells. The method, then: as §1
Series [4] deals with HeLa cells. Put plainly: Cell counting / growth curves in in vitro culture. Type of series: cell-based, human. The settings on record: for decrease in HeLa cell number compared to the control: 47 µM; for number of HeLa cells, % of the control: 1500 µM (maximum concentration); for GI50: HeLa cells, concentration causing 50% cell growth inhibition, from cell growth graphs, mean ± SD; for growth of HeLa cells in culture: microscopic observation / growth curves.

Series [5] deals with primary human gingival fibroblasts. Further details: method as in PMID 35409800. The settings on record: 100 µM; cited from earlier work.
The test system of the next series is OCT1. The settings on record: OCT1-related transport of drugs to cancer cells; cited from earlier work.
The next series has as its system human skin fibroblasts. Further details: method as in PMID 25626895. Conditions: 30 µM to 1000 µM; cited from earlier work.
Another series addresses yeast transketolase. Further details: method as in PMID 13719876. The settings on record: cited from earlier work.
A further series concerns the target rat liver transketolase. On the set-up: method as in PMID 3730445. Conditions: cited from earlier work.
The next series concerns THTR1 (SLC19A2). Conditions: thiamine transport by THTR1; cited from earlier work.
For the next series, the system named is THTR2 (SLC19A3). The settings on record: thiamine transport by THTR2; cited from earlier work.

As for `Cc1ncc(C[n+]2c(C)sc(CCO)c2C)c(N)n1` [2′-methylthiamine, 2-[3-[(4-Amino-2-Methylpyrimidin-5-yl)methyl]-2,4-dimethyl-1,3-thiazol-3-ium-5-yl]ethanol], the melting point (commonly the temperature of the solid-liquid transition) fell in the range of 211 to 214 °C. Also, in [1], the “fibroblast cell number / growth in comparison to the controls” value (“fibroblast cell number / growth” below) is “did not find any significant differences” and the concentration for 50% growth inhibition (GI50) (in general, the concentration at which growth is held to half of that of the control) was more than 1500 µM. The IC50 (usually the concentration that gives 50% inhibition) in series [2] was more than 1500 µM. The “decrease of metabolic activity of HeLa cells (MTT) concerning the control” value in the series on HeLa cells [3] (750 µM) was determined as 30%. In the series on HeLa cells [3] (Homo sapiens), this compound displayed an IC50 of 112 µM. For the same compound, in the series with HeLa cells [3], the “SI (selectivity index)” value was found to be 180. In the series on HeLa cells [4], the “decrease in HeLa cell number compared to the control” value is on record as “decrease in the cell number by only about a half”; the “number of HeLa cells, % of the control” value is given as approximately 25%; halving of growth (GI50) required 107 µM; the “growth of HeLa cells in culture” value was “inhibit the growth”. In the series with HeLa cells [4] (Homo sapiens, HeLa), this compound returned a GI50 of 83 µM.
Take `C/C(=C(\CCOP(=O)(O)O)SC(=O)c1ccccc1)N(C=O)Cc1cnc(C)[nH]c1=O` [benfooxythiamine]: the “reduction in cell viability” value in series [5] is listed as “about 10%”.
Take `COc1cccc2c1C(=O)c1c(O)c3c(c(O)c1C2=O)C[C@@](O)(C(=O)CO)C[C@@H]3O[C@H]1C[C@H](N)[C@H](O)[C@H](C)O1` [doxorubicin]: the Km (commonly the concentration of substrate that gives half-maximal velocity) in the series on OCT1 is 4.6 µM.
Regarding `Cc1ncc(C[n+]2csc(CCO)c2C)c(O)n1` [oxythiamine], the “fibroblast cell number / growth” value in series [1] is recorded as “did not find any significant differences”. Also, the GI50 was more than 1500 µM in [1]; 36 µM in the series with HeLa cells [4]; 39 µM with HeLa cells [4] (Homo sapiens, HeLa). For the same compound, in series [5], the “reduction in cell viability” value is “about 10%”. Also, the cell survival entry with human skin fibroblasts is “not affecting cell survival”. The IC50 on yeast transketolase was approximately 0.03 µM; on rat liver transketolase, 0.2 µM; in series [2], more than 1500 µM; in the series with HeLa cells [3] (Homo sapiens), 51 µM. The activity at 47 µM in the series on HeLa cells [3] (Homo sapiens, HeLa, 47 µM, read-out: metabolic activity of HeLa cells (MTT), % of control) was determined as 50%. The “SI (selectivity index)” value in the series on HeLa cells [3] is 153. In the series on HeLa cells [4], the “decrease in HeLa cell number compared to the control” value is “higher than five-fold decrease”. Also, the “number of HeLa cells, % of the control” value in the series with HeLa cells [4] amounted to 2%. Moreover, the “growth of HeLa cells in culture” value in the series on HeLa cells [4] is “inhibit the growth”.
On to `Cc1ncc(C[n+]2csc(CCO)c2C)c(N)n1` [thiamine], for which the “fibroblast cell number / growth” value in series [1] is listed as “did not observe any differences”. The GI50 in series [1] was more than 1500 µM; in the series on HeLa cells [4] (Homo sapiens, HeLa), more than 1500 µM. In addition, the Km was 2.5 µM in the series on THTR1 (SLC19A2) and 0.00027 µM with THTR2 (SLC19A3). The IC50 (in series [2]; in the series on HeLa cells [3] (Homo sapiens)) was more than 1500 µM each time. Moreover, in series [2] (concentrations above 47 µM), the “metabolic activity of fibroblasts (MTT)” value is recorded as “slightly increased”. In the series on HeLa cells [4], the “growth of HeLa cells in culture” value is “did not observe any differences”.

These data come from paper PMC11050282, “In Vitro and In Silico Studies on Cytotoxic Properties of Oxythiamine and 2′-Methylthiamine” (International Journal of Molecular Sciences, 2024).
